The experiment relates to rats with hybrid hyperlipidemia. The experiment can be described thus: Blood lipids in hybrid hyperlipidemia rat model. Type of experiment: in vivo, SD rat. The settings on record: 3.3 mg/kg, compared with the modeling control group, at each time point. As to the method: Grouping: After quarantine, the animals were randomized into a negative control group of 10 animals and modeling groups of the rest. After the modeling groups were given modeling feed for 2 weeks, the animals were anesthetized by isoflurane inhalation without fasting. The blood was collected from orbital venous sinus and was centrifuged at 3000 rpm for 10 min to separate the serum. The total cholesterol (TC), triglyceride (TG), low-density lipoprotein cholesterol (LDL-C) and high-density lipoprotein cholesterol (HDL-C) levels were determined. Animals with lower TG levels were eliminated. […]
2.8.1 High-fat and high-cholesterol modeling feed: A maintenance feed containing 20.0% of sucrose, 5% of lard, 1.0% of cholesterol, 0.1% of sodium cholate, appropriate amounts of casein, calcium bicarbonate, powdered stone and the like. Other than crude fat, in the modeling feed, moisture, crude protein, crude fat, crude fiber, crude ash, calcium, phosphorus and calcium:phosphorus all satisfied the national standard for maintenance feed. The feed was provided by Guangdong Medical Laboratory Animal Center. […]
2.8.6.3 Blood lipids: After 2, 4, 7 and 9 weeks of treatment (d14, d28, d52 and d65), the animals were anesthetized by isoflurane inhalation without fasting. […] The TC, TG, LDL-C and HDL-C levels were determined. […]

The values below come from patent US11918620B2, “Traditional Chinese medicine composition, and preparation method therefor and application thereof” (Suzhou Regen-PharmaTech Co., Ltd., priority 2020, dated 2024).

In the case of `CC(C)c1c(C(=O)Nc2ccccc2)c(-c2ccccc2)c(-c2ccc(F)cc2)n1CC[C@@H](O)C[C@@H](O)CC(=O)O` [atorvastatin calcium tablet, atorvastatin calcium], the “effect on reducing blood lipids (summary)” value was “no significant effect on reducing the blood lipids”.
